Reference: publication PMC10259803 (PLOS Pathogens, 2023)

Test system: D39x comC^-
Experiment: in vitro recombination frequency, D39x comC^-
Assay type: cell-based, Streptococcus pneumoniae
Conditions: for reduction of recombination frequency upon incubation of modified CSP with trypsin-like proteases: both PPT and HAT, compared with unmodified CSP1
Experimental: During culture incubation, porcine pancreatic trypsin (PPT; Sigma #T4799) was reconstituted in Hank’s balanced salt solution (Gibco) and incubated with either water or 4-(2-Aminoethyl) benzenesulfonyl fluoride hydrochloride (AEBSF; Cayman #14321) in a total volume of 50μL 30mM Tris, pH 8.5 and incubated for 15 minutes, room temperature. CSP1 or CSP2 was added, followed by incubation for 30 minutes, room temperature. When the culture reached OD620~0.08, 1 mL of culture was transferred to the PPT-AEBSF-CSP mixture and 2 μg of D39 Tn-seq library gDNA (D39 strains) or 2 μg of TIGR4 Tn-seq library gDNA (TIGR4 strains) was added. […] Upon addition of the culture, the final concentration of PPT ranged from 0–10 μg/mL, AEBSF was 0.1 mM, CSP was 3 μg/mL, and gDNA was 2 μg/mL. The transformation was incubated for 3 hours at 37°C, 5% CO2, followed by serial dilution and plating on two TSA blood plates and two TSA blood plates supplemented with 200 μg/mL spectinomycin. To observe low-frequency recombination events, 200 μL of the transformation was also spread plated on two TSA blood plates supplemented with 200 μg/mL spectinomycin. For transformations with HAT incubated CSP, HAT (Bio-techne R&D #2695-SE-010) was reconstituted in 25mM Tris, 150mM NaCl, pH 7.5. All incubation times and final concentrations were the same as for PPT; however, the volumes were 1/10th as that for PPT. For both PPT and HAT, the experiment was repeated at least three times.

Row | Structure (SMILES) | reduction of recombination frequency upon incubation of modified CSP with trypsin-like proteases | HAT concentration to reduce recombination frequency below 5% of 0 trypsin: times less compared to unmodified CSP1 (CSP incubated with HAT) | HAT concentration to reduce the recombination frequency to below 5% of 0 trypsin (CSP incubated with HAT 30 min, room temperature) | PPT concentration to reduce recombination frequency below 5% of 0 trypsin: times less compared to unmodified CSP1 (CSP incubated with PPT) | PPT concentration to reduce the recombination frequency to below 5% of 0 trypsin (CSP incubated with PPT 30 min, room temperature)
1 | CC[C@H](C)[C@H](NC(=O)[C@H](Cc1ccccc1)NC(=O)[C@H](CC(=O)O)NC(=O)[C@H](CCCNC(=N)N)NC(=O)[C@H](Cc1ccccc1)NC(=O)[C@H](Cc1ccccc1)NC(=O)[C@H](CCCCN)NC(=O)[C@H](CO)NC(=O)[C@H](CC(C)C)NC(=O)[C@H](CCCNC(=N)N)NC(=O)[C@H](CCSC)NC(=O)[C@@H](N)CCC(=O)O)C(=O)N[C@@H](CC(C)C)C(=O)N[C@@H](CCC(N)=O)C(=O)N[C@@H](Cc1c[nH]cn1)C(=O)N[C@@H](CCCCN)C(=O)N[C@@H](CCCCN)C(=O)O [R15H] | similarly to that of unmodified CSP1 | – | – | – | –
2 | CC[C@H](C)[C@H](NC(=O)[C@H](Cc1ccccc1)NC(=O)[C@H](CC(=O)O)NC(=O)[C@H](CCCNC(=N)N)NC(=O)[C@H](Cc1ccccc1)NC(=O)[C@H](Cc1ccccc1)NC(=O)[C@H](Cc1c[nH]cn1)NC(=O)[C@H](CO)NC(=O)[C@H](CC(C)C)NC(=O)[C@H](CCCNC(=N)N)NC(=O)[C@H](CCSC)NC(=O)[C@@H](N)CCC(=O)O)C(=O)N[C@@H](CC(C)C)C(=O)N[C@@H](CCC(N)=O)C(=O)N[C@@H](CCCNC(=N)N)C(=O)N[C@@H](CCCCN)C(=O)N[C@@H](CCCCN)C(=O)O [K6H] | similarly to that of unmodified CSP1 | – | – | – | –
3 | CC[C@H](C)[C@H](NC(=O)[C@H](Cc1ccccc1)NC(=O)[C@H](CC(=O)O)NC(=O)[C@H](Cc1c[nH]cn1)NC(=O)[C@H](Cc1ccccc1)NC(=O)[C@H](Cc1ccccc1)NC(=O)[C@H](CCCCN)NC(=O)[C@H](CO)NC(=O)[C@H](CC(C)C)NC(=O)[C@H](CCCNC(=N)N)NC(=O)[C@H](CCSC)NC(=O)[C@@H](N)CCC(=O)O)C(=O)N[C@@H](CC(C)C)C(=O)N[C@@H](CCC(N)=O)C(=O)N[C@@H](CCCNC(=N)N)C(=O)N[C@@H](CCCCN)C(=O)N[C@@H](CCCCN)C(=O)O [R9H] | to a greater extent than the unmodified CSP1 | 2 times | 0.5 µg/mL | 5 times | 0.01 µg/mL
